Values of other authors, collected in patent US20020156056A1, “Oral fast-dissolving compositions for dopamine agonists” (priority 1997, published 2002).

What was measured:
[1] = in vivo

| Share of the drug converted to dopamine in peripheral tissues [1] | Share of the drug that enters the brain [1] | SMILES | Adverse effects of intranasal administration (intranasal) | Adverse findings in long-term studies of oral tablets (oral tablets, studies stopped after 7-10 days) | Adverse effects of sub-lingual tablets (sub-lingual tablets, prolonged use) |
| --- | --- | --- | --- | --- | --- |
|  |  | CN1CCc2cccc3c2C1Cc1ccc(O)c(O)c1-3 (centres unmarked) [apomorphine, 5,6,6a,7-tetrahydro-6-methyl-4H-dibenzo[de,g]quinoline-10,11-diol] | transient nasal blockage, burning sensation and swollen nose and lips | unexplained rises in blood urea nitrogen | severe stomatitis on prolonged use with buccal mucosal ulceration in half the patients treated |
| about 95% | less than 1% | N[C@@H](Cc1ccc(O)c(O)c1)C(=O)O [levodopa] |  |  |  |
